Source: ChEMBL document CHEMBL4818987, “Recent advances of podophyllotoxin/epipodophyllotoxin hybrids in anticancer activity, mode of action, and structure-activity relationship: An update (2010-2020)” (Eur J Med Chem, 2020)

Legend:
Type in all cases: functional, cell-based
KB [1] = assay: Cytotoxicity against human KB cells incubated for 72 hrs by SRB method
KB [2] = assay: Cytotoxicity against human Vincristine-resistant KB cells incubated for 72 hrs by SRB method
B16 = assay: Antiproliferative activity against […] cells incubated for 48 to 72 hrs by MTT assay; details: Mus musculus
NCI-H1993 = assay: Antiproliferative activity against human NCI-H1993 cells incubated for 48 to 72 hrs by MTT assay
MKN-45 = assay: Antiproliferative activity against human MKN-45 cells incubated for 48 to 72 hrs by MTT assay
HepG2 = assay: Antiproliferative activity against human HepG2 cells incubated for 48 to 72 hrs by MTT assay

SMILES	IC50 (KB [1]) [nM]	IC50 (KB [2]) [nM]	IC50 (B16) [nM]	IC50 (NCI-H1993) [nM]	IC50 (MKN-45) [nM]	IC50 (HepG2) [nM]
COc1cc([C@@H]2c3cc4c(cc3[C@@H](SSSCCO)[C@H]3COC(=O)[C@H]23)OCO4)cc(OC)c1O	1120	1120	–	–	–	–
COc1cc([C@@H]2c3cc4c(cc3[C@@H](SSCCCN3CCC(O)CC3)[C@H]3COC(=O)[C@H]23)OCO4)cc(OC)c1O	1120	1120	–	–	–	–
COc1cc([C@@H]2c3cc4c(cc3[C@H](n3cc(COc5cccc([N+](=O)[O-])c5)nn3)[C@H]3COC(=O)[C@H]23)OCO4)cc(OC)c1OC	–	–	130	130	130	130
COc1cc(C(=O)/C=C/c2cccs2)ccc1OCc1cn([C@H]2c3cc4c(cc3[C@@H](c3cc(OC)c(OC)c(OC)c3)[C@H]3C(=O)OC[C@@H]32)OCO4)nn1	–	–	130	130	130	130
COc1ccc(/C=C/C(=O)c2ccc(OCc3cn([C@H]4c5cc6c(cc5[C@@H](c5cc(OC)c(OC)c(OC)c5)[C@H]5C(=O)OC[C@@H]54)OCO6)nn3)c(OC)c2)cc1OC	–	–	130	130	130	130
COc1cc([C@@H]2c3cc4c(cc3[C@@H](SSCCN3CCOCC3)[C@H]3COC(=O)[C@H]23)OCO4)cc(OC)c1O	1120	1120	–	–	–	–
COc1cc([C@@H]2c3cc4c(cc3[C@@H](SSc3ccccn3)[C@H]3COC(=O)[C@H]23)OCO4)cc(OC)c1O	1120	1120	–	–	–	–
COc1cc([C@@H]2c3cc4c(cc3[C@@H](SS[C@@H]3O[C@H](COC(C)=O)[C@H](OC(C)=O)[C@H](OC(C)=O)[C@H]3OC(C)=O)[C@H]3COC(=O)[C@H]23)OCO4)cc(OC)c1O	1120	1120	–	–	–	–
COc1cc([C@@H]2c3cc4c(cc3[C@@H](SSCCCN(C(C)C)C(C)C)[C@H]3COC(=O)[C@H]23)OCO4)cc(OC)c1O	1120	1120	–	–	–	–
COc1cc([C@@H]2c3cc4c(cc3[C@@H](SSCC(=O)N3CCC(=O)CC3)[C@H]3COC(=O)[C@H]23)OCO4)cc(OC)c1O	1120	1120	–	–	–	–
COc1cc([C@@H]2c3cc4c(cc3[C@@H](SSCCN3CCCC(O)C3)[C@H]3COC(=O)[C@H]23)OCO4)cc(OC)c1O (stereo not given in full)	1120	1120	–	–	–	–
COc1cc([C@@H]2c3cc4c(cc3[C@@H](SSSCC(O)CO)[C@H]3COC(=O)[C@H]23)OCO4)cc(OC)c1O (stereo not given in full)	1120	1120	–	–	–	–
COc1cc([C@@H]2c3cc4c(cc3[C@@H](SSCCCN3CCCCC3CO)[C@H]3COC(=O)[C@H]23)OCO4)cc(OC)c1O (stereo not given in full)	1120	1120	–	–	–	–
COC(=O)C(N)CSS[C@@H]1c2cc3c(cc2[C@@H](c2cc(OC)c(O)c(OC)c2)[C@H]2C(=O)OC[C@@H]21)OCO3 (stereo not given in full)	1120	1120	–	–	–	–
COc1ccc(SCc2cn([C@H]3c4cc5c(cc4[C@@H](c4cc(OC)c(OC)c(OC)c4)[C@H]4C(=O)OC[C@@H]43)OCO5)nn2)cc1OC	–	–	130	130	130	130
COc1cc([C@@H]2c3cc4c(cc3[C@@H](SSCCN)[C@H]3COC(=O)[C@H]23)OCO4)cc(OC)c1O	1120	1120	–	–	–	–
COc1cc([C@@H]2c3cc4c(cc3[C@@H](SSc3cccs3)[C@H]3COC(=O)[C@H]23)OCO4)cc(OC)c1O	1120	1120	–	–	–	–
COc1cc([C@@H]2c3cc4c(cc3[C@H](n3cc(COc5ccc6c(c5)OCO6)nn3)[C@H]3COC(=O)[C@H]23)OCO4)cc(OC)c1OC	–	–	130	130	130	130
COc1ccc(OCc2cn([C@H]3c4cc5c(cc4[C@@H](c4cc(OC)c(OC)c(OC)c4)[C@H]4C(=O)OC[C@@H]43)OCO5)nn2)cc1	–	–	130	130	130	130
COc1cc([C@@H]2c3cc4c(cc3[C@@H](SSSCCCN3CCOCC3)[C@H]3COC(=O)[C@H]23)OCO4)cc(OC)c1O	1120	1120	–	–	–	–
COc1cc([C@@H]2c3cc4c(cc3[C@H](n3cc(C(C)(C)Oc5ccc([N+](=O)[O-])cc5)nn3)[C@H]3COC(=O)[C@H]23)OCO4)cc(OC)c1OC	–	–	130	130	130	130
COc1cc([C@@H]2c3cc4c(cc3[C@@H](SS[C@@H]3O[C@H](CO)[C@@H](O)[C@H](O)[C@H]3O)[C@H]3COC(=O)[C@H]23)OCO4)cc(OC)c1O	1120	1120	–	–	–	–
COc1cc([C@@H]2c3cc4c(cc3[C@@H](SSCCO)[C@H]3COC(=O)[C@H]23)OCO4)cc(OC)c1O	1120	1120	–	–	–	–
COc1cc([C@@H]2c3cc4c(cc3[C@@H](SSCCCN3CCOCC3)[C@H]3COC(=O)[C@H]23)OCO4)cc(OC)c1O	1120	1120	–	–	–	–

SMILES	IC50 (KB [1]) [nM]	IC50 (KB [2]) [nM]	IC50 (B16) [nM]	IC50 (NCI-H1993) [nM]	IC50 (MKN-45) [nM]	IC50 (HepG2) [nM]
COc1cc([C@@H]2c3cc4c(cc3[C@@H](SSc3cccnc3)[C@H]3COC(=O)[C@H]23)OCO4)cc(OC)c1O	1120	1120	–	–	–	–
COc1cc(C(=O)/C=C/c2ccc(F)cc2)ccc1OCc1cn([C@H]2c3cc4c(cc3[C@@H](c3cc(OC)c(OC)c(OC)c3)[C@H]3C(=O)OC[C@@H]32)OCO4)nn1	–	–	130	130	130	130
CCc1ccc(OCc2cn([C@H]3c4cc5c(cc4[C@@H](c4cc(OC)c(OC)c(OC)c4)[C@H]4C(=O)OC[C@@H]43)OCO5)nn2)cc1	–	–	130	130	130	130
COc1cc(OC)c(OC)cc1/C=C/C(=O)c1ccc(OCc2cn([C@H]3c4cc5c(cc4[C@@H](c4cc(OC)c(OC)c(OC)c4)[C@H]4C(=O)OC[C@@H]43)OCO5)nn2)c(OC)c1	–	–	130	130	130	130
COc1cc([C@@H]2c3cc4c(cc3[C@H](n3cc(COc5ccc(C)c([N+](=O)[O-])c5)nn3)[C@H]3COC(=O)[C@H]23)OCO4)cc(OC)c1OC	–	–	130	130	130	130
COc1cc([C@@H]2c3cc4c(cc3[C@@H](SSCCCN3CCCCC3)[C@H]3COC(=O)[C@H]23)OCO4)cc(OC)c1O	1120	1120	–	–	–	–
COc1cc(C(=O)/C=C/c2cc(OC)c(OC)c(OC)c2)ccc1OCc1cn([C@H]2c3cc4c(cc3[C@@H](c3cc(OC)c(OC)c(OC)c3)[C@H]3C(=O)OC[C@@H]32)OCO4)nn1	–	–	130	130	130	130
COc1cc([C@@H]2c3cc4c(cc3[C@@H](SSSCC(=O)N3CCNCC3)[C@H]3COC(=O)[C@H]23)OCO4)cc(OC)c1O	1120	1120	–	–	–	–
COc1cc([C@@H]2c3cc4c(cc3[C@@H](SSCCN3CCNCC3)[C@H]3COC(=O)[C@H]23)OCO4)cc(OC)c1O	1120	1120	–	–	–	–
CCSS[C@@H]1c2cc3c(cc2[C@@H](c2cc(OC)c(O)c(OC)c2)[C@H]2C(=O)OC[C@@H]21)OCO3	1120	1120	–	–	–	–
COc1cc([C@@H]2c3cc4c(cc3[C@@H](SSCC(=O)N3CCCC(O)C3)[C@H]3COC(=O)[C@H]23)OCO4)cc(OC)c1O (stereo not given in full)	1120	1120	–	–	–	–
COc1cc([C@@H]2c3cc4c(cc3[C@@H](SS[C@@H]3O[C@H](CO)[C@H](O)[C@H](O)[C@H]3O)[C@H]3COC(=O)[C@H]23)OCO4)cc(OC)c1O	1120	9960	–	–	–	–
COc1cc([C@@H]2c3cc4c(cc3[C@@H](SSCCCN3CCCC3)[C@H]3COC(=O)[C@H]23)OCO4)cc(OC)c1O	1120	1120	–	–	–	–
COc1cc([C@@H]2c3cc4c(cc3[C@@H](SS[C@@H]3O[C@@H]5O[C@@H](C)OC[C@H]5[C@H](O)[C@H]3O)[C@H]3COC(=O)[C@H]23)OCO4)cc(OC)c1O	1120	1120	–	–	–	–
COc1cc([C@@H]2c3cc4c(cc3[C@@H](SSCCCN3CCN(C(C)=O)CC3)[C@H]3COC(=O)[C@H]23)OCO4)cc(OC)c1O	1120	1120	–	–	–	–
COc1cc([C@@H]2c3cc4c(cc3[C@@H](SSCC(=O)N3CCOCC3)[C@H]3COC(=O)[C@H]23)OCO4)cc(OC)c1O	1120	1120	–	–	–	–
COc1cc([C@@H]2c3cc4c(cc3[C@@H](SSCC(=O)N3CCC(O)CC3)[C@H]3COC(=O)[C@H]23)OCO4)cc(OC)c1O	1120	1120	–	–	–	–
COc1cc([C@@H]2c3cc4c(cc3[C@@H](SS[C@@H]3O[C@@H]5O[C@@H](c6cccs6)OC[C@H]5[C@H](O)[C@H]3O)[C@H]3COC(=O)[C@H]23)OCO4)cc(OC)c1O	1120	1120	–	–	–	–
COc1cc([C@@H]2c3cc4c(cc3[C@@H](SSCCCN3CCN(C)CC3)[C@H]3COC(=O)[C@H]23)OCO4)cc(OC)c1O	1120	1120	–	–	–	–
COc1cc([C@@H]2c3cc4c(cc3[C@@H](SSCC(=O)N3CCNCC3)[C@H]3COC(=O)[C@H]23)OCO4)cc(OC)c1O	1120	1120	–	–	–	–
CCSSS[C@@H]1c2cc3c(cc2[C@@H](c2cc(OC)c(O)c(OC)c2)[C@H]2C(=O)OC[C@@H]21)OCO3	1120	1120	–	–	–	–
COc1cc([C@@H]2c3cc4c(cc3[C@@H](SSS[C@@H]3O[C@H](CO)[C@@H](O)[C@H](O)[C@H]3O)[C@H]3COC(=O)[C@H]23)OCO4)cc(OC)c1O	1120	1120	–	–	–	–
CCN(CC)CCCSS[C@@H]1c2cc3c(cc2[C@@H](c2cc(OC)c(O)c(OC)c2)[C@H]2C(=O)OC[C@@H]21)OCO3	1120	1120	–	–	–	–
COc1cc([C@@H]2c3cc4c(cc3[C@@H](SSCCCN3CCNCC3)[C@H]3COC(=O)[C@H]23)OCO4)cc(OC)c1O	1120	1120	–	–	–	–
